Assay results reported in patent publication US9951064B2, “Azaindazole compounds as inhibitors of T790M containing EGFR mutants” (Genentech, Inc., priority 2013, dated 2018).

Legend:
EGFR T790M L858R = target: T1, EGFR T790M L858R (Homo sapiens, UniProt P00533, L858R/T790M); experiment: EGFR T790M L858R biochemical assay (Caliper mobility shift); details: 5 μM ATP; apparent Ki (Morrison fit) converted by Cheng-Prusoff, Km of ATP 1.3 μM
T1 construct: purchased Life Technologies PV4879
Method in brief: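 Caliper mobility-shift read-out, electrophoretic separation of substrate from product, after a 30-minute kinase reaction at 22 °C. EDTA at 80 mM terminates each reaction.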

EGFR del746-750 T790M = target: T2, EGFR del746-750 T790M (Homo sapiens, UniProt P00533, DEL746-750/T790M); experiment: EGFR del746-750 T790M biochemical assay (Caliper mobility shift); details: 5 μM ATP; apparent Ki (Morrison fit) converted by Cheng-Prusoff, Km of ATP 2.1 μM; read-out: EGFR(T790M/d746-750) Ki
T2 construct: purchased Carna Biosciences 08-528
Method in brief: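 Caliper mobility-shift read-out, with product electrophoretically resolved from substrate and measured. Reactions were quenched with 80 mM EDTA after 30 min at 22 °C.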

[1] = target: T3, phosphor-EGFR in H1975(L585R/T790M) mutant EGFR expressing cells (Homo sapiens, UniProt P00533, L858R/T790M); experiment: H1975 pEGFR MSD cellular assay; format: cell-based; details: NCI-H1975 cells, serum starved, 1 hour compound incubation, pEGFR Tyr1068 MSD; read-out: HI975 pEGFR EC50
T3 construct: host or cells: NCI-H1975
Method in brief: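 Phospho-EGFR read by MSD electrochemiluminescence: capture with anti-pEGFR antibody (overnight, 4° C), detection with SULFO-TAG anti-total EGFR (1 hour, room temperature). Before lysis, H1975 cells starved of serum overnight got compound for 1 hour at 37° C, 0.5% DMSO final. EC50 via four-parameter logistic regression of percent inhibition.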

[2] = tested on: H1975 (EGFR T790M/L858R) cell proliferation; experiment: H1975 proliferation assay (Cell Titer-Glo); format: cell-based; details: Homo sapiens, NCI-H1975, 72 h, NCI-H1975 cells, 72 hour incubation, read-out: H1975 antiproliferative EC50
Experimental: H1975 Proliferation Assays
All cell culture reagents were purchased from Invitrogen/Gibco. Cells are cultured at 37° C. at 5% CO2 and split as recommended by ATCC.

T2 sequence (P00533 with tags, fused parts or gaps DEL746-750/T790M limits assumed): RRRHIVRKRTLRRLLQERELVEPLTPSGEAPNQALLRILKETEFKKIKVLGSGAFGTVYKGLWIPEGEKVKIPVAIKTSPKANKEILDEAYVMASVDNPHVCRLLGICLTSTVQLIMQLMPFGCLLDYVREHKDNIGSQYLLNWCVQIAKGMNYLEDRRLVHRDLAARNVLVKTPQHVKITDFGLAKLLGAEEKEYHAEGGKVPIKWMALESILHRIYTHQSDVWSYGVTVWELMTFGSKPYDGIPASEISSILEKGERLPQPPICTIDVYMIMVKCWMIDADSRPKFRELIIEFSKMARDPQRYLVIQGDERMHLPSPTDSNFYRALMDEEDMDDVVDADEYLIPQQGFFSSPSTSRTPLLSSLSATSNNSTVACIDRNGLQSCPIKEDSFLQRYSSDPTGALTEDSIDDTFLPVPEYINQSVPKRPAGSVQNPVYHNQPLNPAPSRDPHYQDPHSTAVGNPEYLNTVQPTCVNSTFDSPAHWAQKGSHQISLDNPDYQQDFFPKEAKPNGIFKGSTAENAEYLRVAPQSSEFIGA
T3 sequence (P00533 25-1210 T790M/L858R): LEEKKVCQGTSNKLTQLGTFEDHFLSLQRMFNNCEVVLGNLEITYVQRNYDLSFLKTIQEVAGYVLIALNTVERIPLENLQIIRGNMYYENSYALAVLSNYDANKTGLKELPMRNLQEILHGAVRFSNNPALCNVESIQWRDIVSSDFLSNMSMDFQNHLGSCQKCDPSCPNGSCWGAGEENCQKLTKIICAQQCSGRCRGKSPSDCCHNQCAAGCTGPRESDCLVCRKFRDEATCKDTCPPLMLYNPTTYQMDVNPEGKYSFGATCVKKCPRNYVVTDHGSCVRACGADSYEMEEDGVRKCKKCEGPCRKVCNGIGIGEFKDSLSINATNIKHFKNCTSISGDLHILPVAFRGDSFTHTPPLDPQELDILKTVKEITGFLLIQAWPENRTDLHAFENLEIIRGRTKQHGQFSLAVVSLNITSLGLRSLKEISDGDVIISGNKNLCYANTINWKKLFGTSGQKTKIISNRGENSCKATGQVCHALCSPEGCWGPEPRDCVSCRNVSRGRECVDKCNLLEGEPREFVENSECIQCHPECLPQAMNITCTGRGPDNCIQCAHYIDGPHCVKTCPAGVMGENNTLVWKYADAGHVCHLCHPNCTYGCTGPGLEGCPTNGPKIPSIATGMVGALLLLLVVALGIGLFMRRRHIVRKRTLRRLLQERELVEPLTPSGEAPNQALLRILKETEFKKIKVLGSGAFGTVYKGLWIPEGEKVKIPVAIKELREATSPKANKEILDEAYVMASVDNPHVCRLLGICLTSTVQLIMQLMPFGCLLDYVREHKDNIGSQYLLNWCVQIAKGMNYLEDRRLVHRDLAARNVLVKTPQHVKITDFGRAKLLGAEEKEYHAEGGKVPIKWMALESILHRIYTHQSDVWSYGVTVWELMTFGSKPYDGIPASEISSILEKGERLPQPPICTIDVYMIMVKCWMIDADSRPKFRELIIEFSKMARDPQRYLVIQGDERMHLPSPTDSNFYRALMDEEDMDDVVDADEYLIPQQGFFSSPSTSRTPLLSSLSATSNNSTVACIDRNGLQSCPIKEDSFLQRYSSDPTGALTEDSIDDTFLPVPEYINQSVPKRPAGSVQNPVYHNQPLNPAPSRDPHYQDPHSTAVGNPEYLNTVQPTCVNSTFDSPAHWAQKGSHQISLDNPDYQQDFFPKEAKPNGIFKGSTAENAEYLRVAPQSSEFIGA
T1 sequence (P00533 25-1210 T790M/L858R): as above

Structure (SMILES)	Ki (EGFR T790M L858R) [nM]	Ki (EGFR del746-750 T790M) [nM]	EC50 [1] [nM]	EC50 [2] [nM]
CC(C)n1nc(N2CC(O)C2)c2cnc(Nc3ccnc(-c4cnn(S(=O)(=O)C5CC5)c4)n3)cc21 [Example 37, 1-(6-(2-(1-(cyclopropylsulfonyl)-1H-pyrazol-4-yl)pyrimidin-4-ylamino)-1-isopropyl-1H-pyrazolo[4,3-c]pyridin-3-yl)azetidin-3-ol]	1.4	0.8	91.7	1120
CCS(=O)(=O)n1cc(-c2nccc(Nc3cc4c(cn3)c(NC3CCOC3)nn4C(C)C)n2)cn1 (stereo not drawn) [Example 38, N6-(2-(1-(ethylsulfonyl)-1H-pyrazol-4-yl)pyrimidin-4-yl)-1-isopropyl-N3-(tetrahydrofuran-3-yl)-1H-pyrazolo[4,3-c]pyridine-3,6-diamine]	1.1	2.4	40.8	272
CC(C)n1nc(N2CCOC(CO)C2)c2cnc(Nc3ccnc(-c4cnn(S(=O)(=O)C5CC5)c4)n3)cc21 (stereo not drawn) [Example 53, (4-(6-(2-(1-(cyclopropylsulfonyl)-1H-pyrazol-4-yl)pyrimidin-4-ylamino)-1-isopropyl-1H-pyrazolo[4,3-c]pyridin-3-yl)morpholin-2-yl)methanol]	1.2	0.9	53.6	241
CC(C)n1nc(N2CCC2)c2cnc(Nc3ccnc(-c4cnn(S(=O)(=O)C5CC5)c4)n3)cc21 [Example 54, 3-(azetidin-1-yl)-N-(2-(1-(cyclopropylsulfonyl)-1H-pyrazol-4-yl)pyrimidin-4-yl)-1-isopropyl-1H-pyrazolo[4,3-c]pyridin-6-amine]	0.7	0.5	17.9	158
CC(C)n1nc(N2CCNC(=O)C2)c2cnc(Nc3ccnc(-c4cnn(S(=O)(=O)C5CC5)c4)n3)cc21 [Example 59, 4-(6-(2-(1-(cyclopropylsulfonyl)-1H-pyrazol-4-yl)pyrimidin-4-ylamino)-1-isopropyl-1H-pyrazolo[4,3-c]pyridin-3-yl)piperazin-2-one]	< 0.6	0.5	92.1	738
CC(C)n1nc(N2CC(CO)C2)c2cnc(Nc3ccnc(-c4cnn(S(=O)(=O)C5CC5)c4)n3)cc21 [Example 63, (1-(6-(2-(1-(cyclopropylsulfonyl)-1H-pyrazol-4-yl)pyrimidin-4-ylamino)-1-isopropyl-1H-pyrazolo[4,3-c]pyridin-3-yl)azetidin-3-yl)methanol]	< 0.6	0.5	18.5	271
CC[C@H](C)n1nc(N2CC3(COC3)C2)c2cnc(Nc3ccnc(OCC(C)(C)S(C)(=O)=O)n3)cc21 [Example 71, [1-((S)-sec-Butyl)-3-(2-oxa-6-azaspiro[3.3]hept-6-yl)-1H-pyrazolo[4,3-c]pyridin-6-yl]-[2-(2-methanesulfonyl-2-methylpropoxy)pyrimidin-4-yl]amine]	4.7	13.2	256	785
CC(C)n1nc(N2CCOC2=O)c2cnc(Nc3ccnc(-c4cnn(S(=O)(=O)C5CC5)c4)n3)cc21 [Example 72, 3-(6-(2-(1-(Cyclopropylsulfonyl)-1H-pyrazol-4-yl)pyrimidin-4-ylamino)-1-isopropyl-1H-pyrazolo[4,3-c]pyridin-3-yl)oxazolidin-2-one]	0.7	0.5	28.1	206
CC(C)n1nc(N2CC3CCC(C2)O3)c2cnc(Nc3ccnc(-c4cnn(S(=O)(=O)C5CC5)c4)n3)cc21 [Example 73, 3-(8-Oxa-3-azabicyclo[3.2.1]octan-3-yl)-N-(2-(1-(cyclopropylsulfonyl)-1H-pyrazol-4-yl)pyrimidin-4-yl)-1-isopropyl-1H-pyrazolo[4,3-c]pyridin-6-amine]	3.3	3.1	124	1210
CC(C)n1nc(NC(C)(C)C)c2cnc(Nc3ccnc(-c4cnn(S(=O)(=O)C5CC5)c4)n3)cc21 [Example 74, N^3-tert-Butyl-N^6-(2-(1-(cyclopropylsulfonyl)-1H-pyrazol-4-yl)pyrimidin-4-yl)-1-isopropyl-1H-pyrazolo[4,3-c]pyridine-3,6-diamine]	129	106	9260	4620
CC(C)n1nc(N2CCN(C)C2=O)c2cnc(Nc3ccnc(N4CCC(O)C(F)C4)n3)cc21 (stereo not drawn) [Example 76, 1-(6-(2-(cis-3-Fluoro-4-hydroxypiperidin-1-yl)pyrimidin-4-ylamino)-1-isopropyl-1H-pyrazolo[4,3-c]pyridin-3-yl)-3-methylimidazolidin-2-one]	5.1	13.8	752	1180
CC(C)n1nc(N2CC(C)(O)C2)c2cnc(Nc3ccnc(-c4cnn(S(=O)(=O)C5CC5)c4)n3)cc21 [Example 82, 1-(6-(2-(1-(Cyclopropylsulfonyl)-1H-pyrazol-4-yl)pyrimidin-4-ylamino)-1-isopropyl-1H-pyrazolo[4,3-c]pyridin-3-yl)-3-methylazetidin-3-ol]	1.4	1.2	108	289

The next lines start with the values.

Ki (EGFR T790M L858R) [nM]	Ki (EGFR del746-750 T790M) [nM]	EC50 [1] [nM]	EC50 [2] [nM]	Structure (SMILES)
1.3	1.2	21.6	> 10000	CC(C)n1nc(N2CCN(C)C2=O)c2cnc(Nc3ccnc(-c4cnn(S(=O)(=O)C5CC5)c4)n3)cc21 [Example 83, 1-(6-(2-(1-(Cyclopropylsulfonyl)-1H-pyrazol-4-yl)pyrimidin-4-ylamino)-1-isopropyl-1H-pyrazolo[4,3-c]pyridin-3-yl)-3-methylimidazolidin-2-one]
6.7	20.5	2140	> 10000	CC(C)n1nc(N2CC(C(C)(C)C(N)=O)C2)c2cnc(Nc3ccnc(N4CCC(C)(O)CC4)n3)cc21 [Example 84, 2-(1-(6-(2-(4-Hydroxy-4-methylpiperidin-1-yl)pyrimidin-4-ylamino)-1-isopropyl-1H-pyrazolo[4,3-c]pyridin-3-yl)azetidin-3-yl)-2-methylpropanamide]
5.5	15.5	308	1330	CC(C)n1nc(N2CC(O)C(F)(F)C2)c2cnc(Nc3ccnc(N4CCC(C)(O)CC4)n3)cc21 (stereo not drawn) [Example 85, 1-(4-(3-(3,3-Difluoro-4-hydroxypyrrolidin-1-yl)-1-isopropyl-1H-pyrazolo[4,3-c]pyridin-6-ylamino)pyrimidin-2-yl)-4-methylpiperidin-4-ol]
13.3	29.1	1940	> 10000	CC(C)n1nc(N2CC(N)CC2=O)c2cnc(Nc3ccnc(N4CCC(C)(O)CC4)n3)cc21 (stereo not drawn) [Example 86, 4-Amino-1-(6-(2-(4-hydroxy-4-methylpiperidin-1-yl)pyrimidin-4-ylamino)-1-isopropyl-1H-pyrazolo[4,3-c]pyridin-3-yl)pyrrolidin-2-one]
6.4	11.4	472	3290	CC(n1nc(N2CC3(COC3)C2)c2cnc(Nc3ccnc(N4CCC(C)(O)CC4)n3)cc21)C(F)(F)F (stereo not drawn) [Example 87, 4-Methyl-1-[4-[(3-[2-oxa-6-azaspiro[3.3]heptan-6-yl]-1-(1,1,1-trifluoropropan-2-yl)-1H-pyrazolo[4,3-c]pyridin-6-yl)amino]pyrimidin-2-yl]piperidin-4-ol]
26.5	46.9	5260	9980	CCC(C)n1nc(N2CCS(=N)(=O)CC2)c2cnc(Nc3ccnc(N4CCC(C)(O)CC4)n3)cc21 (stereo not drawn) [Example 89, 4-[1-(sec-Butyl)-6-[[2-(4-hydroxy-4-methylpiperidin-1-yl)pyrimidin-4-yl]amino]-1H-pyrazolo[4,3-c]pyridin-3-yl]-1-imino-4-thiomorpholin-1-one]
3.8	9.5	788	1760	CCC(C)n1nc(N2CCNC(=O)C2)c2cnc(Nc3ccnc(N4CCC(C)(O)CC4)n3)cc21 (stereo not drawn) [Example 92, 4-(1-sec-Butyl-6-(2-(4-hydroxy-4-methylpiperidin-1-yl)pyrimidin-4-ylamino)-1H-pyrazolo[4,3-c]pyridin-3-yl)piperazin-2-one]
4.6	17.2	387	1240	CC[C@@H](C)n1nc(N2CC3(COC3)C2)c2cnc(Nc3ccnc(OCC(C)(C)S(C)(=O)=O)n3)cc21 [Example 96, [1-((R)-sec-Butyl)-3-(2-oxa-6-azaspiro[3.3]hept-6-yl)-1H-pyrazolo[4,3-c]pyridin-6-yl]-[2-(2-methanesulfonyl-2-methylpropoxy)pyrimidin-4-yl]amine]
8.7	7.2	1060	1260	CC(C)n1nc(N2CCOCC2)c2cnc(Nc3ccnc(NCC(C)(C)S(C)(=O)=O)n3)cc21 [Example 100, N^4-(1-Isopropyl-3-morpholin-4-yl-1H-pyrazolo[4,3-c]pyridin-6-yl)-N^2-(2-methanesulfonyl-2-methylpropyl)pyrimidine-2,4-diamine]
